Article PMC10675174, “Design, Synthesis, and Repurposing of Rosmarinic Acid-β-Amino-α-Ketoamide Hybrids as Antileishmanial Agents” (Pharmaceuticals, 2023)

Assays:
[1] = system: L. donovani promastigotes; experiment: In vitro L. donovani promastigotes growth inhibition (resazurin-based assay); format: cell-based; conditions: Leishmania donovani, 72 h; for inhibition at 25 µM / inhibition at 50 µM: growth of L. donovani promastigotes, incubation 3 days, relative to control; for IC50: incubation for 3 days, from dose-response curves, read-out: IC50 against L. donovani promastigotes
Method: Using an in vitro promastigotes-based model, the activity of the synthesized target compounds 2a–i was assessed against the promastigote stage of L. donovani. A double-concentration assay was performed for each compound at 50 and 25 µM concentrations adopting a resazurin-based assay system. Erufosine was used as a positive reference standard drug.
Among the evaluated compounds, seven derivatives maintained a high inhibitory activity at 25 and 50 μM concentrations which was similar to erufosine. Therefore, they were advanced to assessment of potency to evaluate their quality as antileishmanial hit compounds. […] Erufosine was used as positive controls for comparison.
(§1) 2.1. In vitro L. donovani promastigotes-based evaluation model
(§2) 2.1.1. Cell culture of parasite
(§3) L. donovani MHOM/SD/62/1S-CL2D parasites (Department of PIV, Institut Pasteur, Paris,
(§4) France) were cultured as promastigotes at 28 °C in M199 medium (Sigma-Aldrich, St. Louis, MO,
(§5) USA) with 40 mM HEPES, 0.1 mM adenine, 0.0001% biotin, and 4.62 mM NaHCO3
(§6) supplemented with 10% foetal bovine serum (FBS, Gibco, Carlsbad, CA, USA), […]
(§7) penicillin (Gibco), and […] streptomycin (Gibco). Parasites were sub-cultured every 3 or
(§8) 4 days and maintained for 10 passages.
(§9) 2.1.2 Assay of parasite growth inhibition
(§10) The values of growth inhibition of L. donovani promastigotes were determined based on the
(§11) metabolism of resazurin to resorufin by aerobic respiration of metabolically active cells using 384-
(§12) well plates that were seeded with L. donovani promastigotes (5x10^4 cells per well) and incubated
(§13) with tested compounds for 3 days followed by addition of Resazurin sodium salt (200 µM; R7017;
(§14) Sigma-Aldrich, St. Louis, MO, USA) and further incubation for 5 h then the cells were fixed (4%
paraformaldehyde). The plates were analysed using a Victor3TM plate reader (PerkinElmer, Inc.,
Waltham, MA, USA) at 590 nm (emission) and 530 nm (excitation). Miltefosine and erufosine
were used as the reference standards. All measured and calculated values are the averages of
triplicates. The dose-response curves were generated by GraphPad Prism 6 software using a
sigmoidal dose-response equation with a variable hill slope option. […]

[2] = system: promastigotes of L. amazonensis; conditions: read-out: IC50 against promastigotes of L. amazonensis; cited from earlier work
[3] = In vitro safety evaluation: cytotoxicity on THP-1 cells; format: cell-based; conditions: human, PMA-treated THP-1 monocytic cells, THP-1 human monocytic cell line
Method: As for the considerable toxicities of current antileishmanial therapies, a promising drug candidate should be selective eliciting no potential cytotoxicity towards human cells. […] The newly introduced hit compound needs to be safe and non-toxic to human cells. A comparison with the standard drug erufosine was performed. […] In light of these findings, it might be inferred that both cinnamoyl ketoamide hybrids 2g and 2h could be selective antileishmanial hit compounds for future development.
as §1, §2, §3, §4, §5, §6, §7, §8, §9, §10, §11, §12, §13, §14
paraformaldehyde). The plates were analysed using a Victor3TM plate reader (PerkinElmer, Inc., […]
were used as the reference standards. All measured and calculated values are the averages of […]
The images were acquired based on reading using an Operetta® automated microscope
(PerkinElmer, Inc., Waltham, MA 02451, USA). They were further analysed using ColumbusTM
(PerkinElmer, Inc. Waltham, MA, USA) software to quantify parasite numbers, and host cell
numbers. In brief, large-sized nucleus of host cells was first detected using DAPI signal and the […]

[4] = system: promastigotes of L. infantum; conditions: cited from earlier work

Compound	IC50 [1] [µM]	inhibition at 25 µM [1] [%]	inhibition at 50 µM [1] [%]	IC50 [2] [µM]	CC50 at 72 h [3] [µM]	IC50 ([4]; read-out: IC50 against promastigotes of L. infantum) [µM]	IC50 against promastigotes of L. infantum [4] [µg/mL]
O=C(/C=C/c1ccc(O)c(O)c1)O[C@@H]1C[C@](O)(C(=O)O)C[C@@H](O)[C@H]1O [chlorogenic, chlorogenic acid]	–	–	–	> 500	–	–	–
COc1ccc(CCNC(=O)C(=O)C(Cc2ccccc2)NC(=O)C=Cc2ccc(O)c(O)c2)cc1 (centres unmarked) [Compound 2b]	–	44 ± 1.2	72.83 ± 0.4	–	–	–	–
CCCCCCCC/C=C\CCCCCCCCCCCCOP(=O)([O-])OCC[N+](C)(C)C [Erufosine, reference compound]	9.8 ± 0.7	100 ± 1	107.6 ± 0.3	–	19.4	–	–
CCCCC(=Cc1ccc(OC)c(OC)c1)C(=O)NC(Cc1ccccc1)C(=O)C(=O)NCCc1ccc(OC)cc1 (centres unmarked) [Compound 2i]	–	79.8 ± 1.8	94.2 ± 1.2	–	–	–	–
O=C(/C=C/c1ccc(O)c(O)c1)O[C@H](Cc1ccc(O)c(O)c1)C(=O)O [Rosmarinic acid]	–	–	–	61	–	57.3	–
O=C(/C=C/c1ccc(O)c(O)c1)OCCc1ccccc1 [CAPE, caffeic acid phenethyl ester]	–	–	–	–	–	–	51.0

Second part, led by results:

IC50 [1] [µM]	Compound	inhibition at 25 µM [1] [%]	inhibition at 50 µM [1] [%]	IC50 [2] [µM]	CC50 at 72 h [3] [µM]	IC50 ([4]; read-out: IC50 against promastigotes of L. infantum) [µM]	IC50 against promastigotes of L. infantum [4] [µg/mL]
> 100	O=C(C=Cc1ccc(O)c(O)c1)NC(Cc1ccccc1)C(=O)C(=O)NCc1ccccc1 (centres unmarked) [Compound 2a]	97.8 ± 1	103 ± 0.4	–	–	–	–
37.6 ± 2.1	CCCC(=Cc1ccc(O)c(O)c1)C(=O)NC(Cc1ccccc1)C(=O)C(=O)NCCc1ccc(OC)cc1 (centres unmarked) [Compound 2e]	104 ± 0.2	104 ± 0.1	–	–	–	–
87.3 ± 1.2	CCC(=Cc1ccc(O)c(O)c1)C(=O)NC(Cc1ccccc1)C(=O)C(=O)NCc1ccccc1 (centres unmarked) [Compound 2c]	104 ± 0.3	101 ± 0.2	–	–	–	–
45.2 ± 0.9	CCCC(=Cc1ccc(O)c(O)c1)C(=O)NC(Cc1ccccc1)C(=O)C(=O)NCc1ccccc1 (centres unmarked) [Compound 2d]	107 ± 0.4	102 ± 0.1	–	–	–	–
26.9 ± 1.4	CCCCC(=Cc1ccc(O)c(O)c1)C(=O)NC(Cc1ccccc1)C(=O)C(=O)NCc1ccccc1 (centres unmarked) [Compound 2f]	104 ± 0.4	100 ± 0.3	–	–	–	–
9.5 ± 0.6	CCCCC(=Cc1ccc(O)c(O)c1)C(=O)NC(Cc1ccccc1)C(=O)C(=O)NCCc1ccc(OC)cc1 (centres unmarked) [Compound 2g]	107 ± 0.1	103 ± 0.1	–	> 100	–	–
8.8 ± 0.4	CCCCC(=Cc1ccc(O)c(OC)c1)C(=O)NC(Cc1ccccc1)C(=O)C(=O)NCCc1ccc(OC)cc1 (centres unmarked) [Compound 2h]	103 ± 0.2	100 ± 0.3	–	> 100	–	–
